# Measurements taken from ChEMBL document CHEMBL1649169, “Multiresistance in Pasteurella multocida is mediated by coexistence of small plasmids” (2009).
# What was measured:
# Format in all cases: functional
# [1] = system: Pasteurella multocida; assay: Antibacterial activity against Pasteurella multocida ATCC 43137 by CLSI M31-A3 broth microdilution method
# [2] = system: Pasteurella multocida; assay: Antibacterial activity against Pasteurella multocida BB1034 harboring plasmid pB1000 bearing blaROB-1 gene and plasmid pB1001 bearing tetB gene by CLSI M31-A3 broth microdilution method
# [3] = system: Pasteurella multocida; assay: Antibacterial activity against Pasteurella multocida BB1035 harboring plasmid pB1000 bearing blaROB-1 gene and plasmid pB1005 bearing strA, sul2 genes by CLSI M31-A3 broth microdilution method
# [4] = system: Pasteurella multocida; assay: Antibacterial activity against Pasteurella multocida BB1036 harboring plasmid pB1000 bearing blaROB-1 gene and plasmid pB1005 bearing strA, sul2 genes by CLSI M31-A3 broth microdilution method
# [5] = system: Pasteurella multocida; assay: Antibacterial activity against Pasteurella multocida BB1037 harboring plasmid pB1000 bearing blaROB-1 gene and plasmid pB1005 bearing strA, sul2 genes by CLSI M31-A3 broth microdilution method
# [6] = system: Pasteurella multocida; assay: Antibacterial activity against Pasteurella multocida BB1038 harboring plasmid pB1000 bearing blaROB-1 gene and plasmid pB1005 bearing strA, sul2 genes by CLSI M31-A3 broth microdilution method
# [7] = system: Pasteurella multocida; assay: Antibacterial activity against Pasteurella multocida BB1039 harboring plasmid pB1000 bearing blaROB-1 gene and plasmid pB9956 bearing tetH gene by CLSI M31-A3 broth microdilution method
# [8] = system: Pasteurella multocida; assay: Antibacterial activity against Pasteurella multocida BB1040 harboring plasmid pB1000 bearing blaROB-1 gene and plasmid pB9956 bearing tetH gene by CLSI M31-A3 broth microdilution method
# [9] = system: Pasteurella multocida; assay: Antibacterial activity against Pasteurella multocida BB1041 harboring plasmid pB1000 bearing blaROB-1 gene and plasmid pB9956 bearing tetH gene by CLSI M31-A3 broth microdilution method
# [10] = system: Pasteurella multocida; assay: Antibacterial activity against Pasteurella multocida BB1042 harboring plasmid pB1000 bearing blaROB-1 gene and plasmid pB9956 bearing tetH gene by CLSI M31-A3 broth microdilution method
# [11] = system: Pasteurella multocida; assay: Antibacterial activity against Pasteurella multocida BB1043 harboring plasmid pB1000 bearing blaROB-1 gene and plasmid pB9956 bearing tetH gene by CLSI M31-A3 broth microdilution method
# [12] = system: Pasteurella multocida; assay: Antibacterial activity against Pasteurella multocida BB1044 harboring plasmid pB1000 bearing blaROB-1 gene, plasmid 1006 bearing tetO gene and plasmid pB1005 bearing strA, sul2 genes by CLSI M31-A3 broth microdilution method
# [13] = system: Pasteurella multocida; assay: Antibacterial activity against Pasteurella multocida BB1045 harboring plasmid pB1000 bearing blaROB-1 gene and plasmid pB9956 bearing tetH gene by CLSI M31-A3 broth microdilution method
# [14] = system: Pasteurella multocida; assay: Antibacterial activity against Pasteurella multocida BB1046 harboring plasmid pB1003 bearing blaROB-1 gene and plasmid pB1002 bearing strA, sul2 genes by CLSI M31-A3 broth microdilution method
SMILES,MIC [1] [µg/mL],MIC [2] [µg/mL],MIC [3] [µg/mL],MIC [4] [µg/mL],MIC [5] [µg/mL],MIC [6] [µg/mL],MIC [7] [µg/mL],MIC [8] [µg/mL],MIC [9] [µg/mL],MIC [10] [µg/mL],MIC [11] [µg/mL],MIC [12] [µg/mL],MIC [13] [µg/mL],MIC [14] [µg/mL]
CO/N=C(\C(=O)N[C@@H]1C(=O)N2C(C(=O)O)=C(COC(C)=O)CS[C@H]12)c1csc(N)n1 [CEFOTAXIME],≤ 0.06,1,0.5,1,1,1,1,1,1,1,1,1,1,0.5
Cc1cc(NS(=O)(=O)c2ccc(N)cc2)no1 [SULFAMETHOXAZOLE],> 256,> 256,> 256,> 256,> 256,> 256,> 256,> 256,> 256,> 256,> 256,> 256,> 256,> 256
CC1(C)S[C@@H]2[C@H](NC(=O)[C@H](N)c3ccc(O)cc3)C(=O)N2[C@H]1C(=O)O [AMOXICILLIN],≤ 1,> 256,> 256,> 256,> 256,> 256,> 256,> 256,> 256,> 256,> 256,> 256,> 256,> 256
CN(C)[C@@H]1C(O)=C(C(N)=O)C(=O)[C@@]2(O)C(O)=C3C(=O)c4c(O)cccc4[C@@](C)(O)[C@H]3C[C@@H]12 [TETRACYCLINE],2,16,2,2,2,2,32,32,32,32,32,32,32,1
CC1(C)S[C@@H]2[C@H](NC(=O)Cc3ccccc3)C(=O)N2[C@H]1C(=O)O [PENICILLIN G],≤ 0.03,> 16,> 16,> 16,> 16,> 16,> 16,> 16,> 16,> 16,> 16,> 16,> 16,> 16
N[C@@H](C(=O)N[C@@H]1C(=O)N2C(C(=O)O)=C(Cl)CS[C@H]12)c1ccccc1 [CEFACLOR ANHYDROUS],≤ 1,> 16,> 16,> 16,> 16,> 16,> 16,> 16,> 16,> 16,> 16,> 16,> 16,> 16
CN[C@@H]1[C@H](O[C@H]2[C@H](O[C@H]3[C@H](O)[C@@H](O)[C@H](N=C(N)N)[C@@H](O)[C@@H]3N=C(N)N)O[C@@H](C)[C@]2(O)C=O)O[C@@H](CO)[C@H](O)[C@H]1O [STREPTOMYCIN],8,32,> 256,> 256,> 256,> 256,8,16,16,8,8,> 256,16,> 256
